# Assay results from patent US20250346585A1 (Alexion Pharmaceuticals, Inc., priority 2022, published 2025).
# Where a name gives a salt, the structure may show the parent alone.
# Target: Human complement C1s enzyme (Homo sapiens (Human), UniProt P09871)
# Test: Human C1s enzyme assay
# Type: biochemical
# Settings: Human C1s enzyme assay of Example 3; read-out: IC50 (Stars)
# Procedure, shortened: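 IC50 derived by nonlinear regression of rate versus concentration, with rate taken from A405 kinetics (30 s intervals, 30 min) after adding 100 μM each Z-L-Lys-SBzl and DTNB. C1s from human serum, 1.16 nM, exposed to compound for 5 min at RT beforehand; buffer 50 mM Tris, 1 M NaCl, pH 7.5.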
# Human complement C1s enzyme, sequence (P09871 438-688 limits assumed): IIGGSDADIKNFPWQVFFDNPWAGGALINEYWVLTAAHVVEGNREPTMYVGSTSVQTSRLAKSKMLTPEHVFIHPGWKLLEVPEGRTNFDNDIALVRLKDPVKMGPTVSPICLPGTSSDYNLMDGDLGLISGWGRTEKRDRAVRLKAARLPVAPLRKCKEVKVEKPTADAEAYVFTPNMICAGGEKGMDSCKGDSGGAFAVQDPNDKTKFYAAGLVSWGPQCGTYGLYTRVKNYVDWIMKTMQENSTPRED
# Human complement C1s enzyme, sequence (P09871 16-437 partner limits assumed): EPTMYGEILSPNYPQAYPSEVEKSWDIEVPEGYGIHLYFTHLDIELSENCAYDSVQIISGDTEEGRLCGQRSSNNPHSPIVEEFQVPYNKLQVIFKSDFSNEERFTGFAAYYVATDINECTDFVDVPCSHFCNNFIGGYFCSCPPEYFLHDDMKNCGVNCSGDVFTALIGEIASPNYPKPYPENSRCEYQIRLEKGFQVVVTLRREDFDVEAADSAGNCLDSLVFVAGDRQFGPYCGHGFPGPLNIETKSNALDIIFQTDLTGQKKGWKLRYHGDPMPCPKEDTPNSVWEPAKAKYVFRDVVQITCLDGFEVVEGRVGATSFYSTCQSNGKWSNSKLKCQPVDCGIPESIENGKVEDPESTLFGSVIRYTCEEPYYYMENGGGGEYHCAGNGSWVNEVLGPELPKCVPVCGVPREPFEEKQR
row,SMILES,IC50 [nM]
1,"CC1(C)c2ccccc2-c2cc(C(=O)NCC(=O)N3CC4(C[C@H]3C(=O)NCc3cc(C(=N)N)cs3)OCCO4)ccc21 [Compound 60, (S)—N-((4-carbamimidoylthiophen-2-yl)methyl)-7-((9,9-dimethyl-9H-fluorene-3-carbonyl)glycyl)-1,4-dioxa-7-azaspiro[4.4]nonane-8-carboxamide]",< 100
2,"C[C@@H](NC(=O)[C@@H]1C[C@@H](S(C)(=O)=O)CN1C(=O)CNC(=O)c1ccc2c(c1)-c1ccccc1C2(F)F)c1cc(C(=N)N)cs1 [Compound 61, (2S,4R)—N—((R)-1-(4-carbamimidoylthiophen-2-yl)ethyl)-1-((9,9-difluoro-9H-fluorene-3-carbonyl)glycyl)-4-(methylsulfonyl)pyrrolidine-2-carboxamide]",< 100
3,"C[C@@H]1C[C@@H](C(=O)N[C@H](C)c2cc(C(=N)N)cs2)N(C(=O)CNC(=O)c2ccc3c(c2)-c2ccccc2C3(F)F)C1 [Compound 62, (2S,4R)—N—((R)-1-(4-carbamimidoylthiophen-2-yl)ethyl)-1-((9,9-difluoro-9H-fluorene-3-carbonyl)glycyl)-4-methylpyrrolidine-2-carboxamide]",< 100
4,"C[C@@H]1C[C@@H](C(=O)N[C@H](C)c2cc(C(=N)N)cs2)N(C(=O)CNC(=O)c2ccc(Oc3ccc(F)cc3)cc2)C1 [Compound 63, (2S,4R)—N—((R)-1-(4-carbamimidoylthiophen-2-yl)ethyl)-1-((4-(4-fluorophenoxy)benzoyl)glycyl)-4-methylpyrrolidine-2-carboxamide]",< 100
5,"C[C@@H](NC(=O)[C@@H]1C[C@@H](OC(F)F)CN1C(=O)CNC(=O)c1ccc(Oc2ccc(C3CC3)cc2)cc1)c1cc(C(=N)N)cs1 [Compound 64, (2S,4R)—N—((R)-1-(4-carbamimidoylthiophen-2-yl)ethyl)-1-((4-(4-cyclopropylphenoxy)benzoyl)glycyl)-4-(difluoromethoxy)pyrrolidine-2-carboxamide hydrochloride]",< 100
6,"C[C@@H](NC(=O)[C@@H]1C[C@@H](OC(F)F)CN1C(=O)CNC(=O)c1ccc(Oc2ccc(C(F)F)cc2)cc1)c1cc(C(=N)N)cs1 [Compound 65, (2S,4R)—N—((R)-1-(4-carbamimidoylthiophen-2-yl)ethyl)-4-(difluoromethoxy)-1-((4-(4-(difluoromethyl)phenoxy)benzoyl)glycyl)pyrrolidine-2-carboxamide]",< 100
7,"C[C@@H](NC(=O)[C@@H]1CC2(CN1C(=O)CNC(=O)c1cc3ccc1CCc1ccc(cc1)CC3)OCCO2)c1cc(C(=N)N)cs1 [Compound 66, (S)-7-((1,4(1,4)-dibenzenacyclohexaphane-1^2-carbonyl)glycyl)-N—((R)-1-(4-carbamimidoylthiophen-2-yl)ethyl)-1,4-dioxa-7-azaspiro[4.4]nonane-8-carboxamide]",< 100
8,"C[C@@H](NC(=O)[C@@H]1C[C@]2(C)C[C@@H]2N1C(=O)CNC(=O)c1ccc(Oc2ccc(F)cc2)cc1)c1ccc(C(=N)N)s1 [Compound 67, (1S,3S,5S)—N—((R)-1-(5-carbamimidoylthiophen-2-yl)ethyl)-2-((4-(4-fluorophenoxy)benzoyl)glycyl)-5-methyl-2-azabicyclo[3.1.0]hexane-3-carboxamide]",< 100
9,"COC[C@@]1(F)C[C@@H](C(=O)NCc2ccc(C(=N)N)s2)N(C(=O)CNC(=O)c2ccc(Oc3ccc(F)cc3)cc2)C1 [Compound 68, (2S,4R)—N-((5-carbamimidoylthiophen-2-yl)methyl)-4-fluoro-1-((4-(4-fluorophenoxy)benzoyl)glycyl)-4-(methoxymethyl)pyrrolidine-2-carboxamide]",< 100
10,"C[C@@H](NC(=O)[C@@H]1C[C@]2(COCCN)C[C@@H]2N1C(=O)CNC(=O)c1ccc(Oc2ccc(F)cc2)cc1)c1cc(C(=N)N)cs1 [Compound 69, (1S,3S,5R)-5-((2-aminoethoxy)methyl)-N—((R)-1-(4-carbamimidoylthiophen-2-yl)ethyl)-2-((4-(4-fluorophenoxy)benzoyl)glycyl)-2-azabicyclo[3.1.0]hexane-3-carboxamide]",< 100
11,"CO[C@@H]1C[C@@H](C(=O)N[C@H](C)c2cc(C(=N)N)cs2)N(C(=O)CNC(=O)c2ccc(Oc3ccc(F)cc3)cc2)C1 [Compound 70, (2S,4R)—N—((R)-1-(4-carbamimidoylthiophen-2-yl)ethyl)-1-((4-(4-fluorophenoxy)benzoyl)glycyl)-4-methoxypyrrolidine-2-carboxamide]",< 100
12,"CO[C@@H]1C[C@@H](C(=O)N[C@H](C)c2cc(C(=N)N)cs2)N(C(=O)CNC(=O)c2ccc3c(c2)-c2ccccc2C3(F)F)C1 [Compound 71, (2S,4R)—N—((R)-1-(4-carbamimidoylthiophen-2-yl)ethyl)-1-((9,9-difluoro-9H-fluorene-3-carbonyl)glycyl)-4-methoxypyrrolidine-2-carboxamide]",< 100
13,"COC[C@@]12C[C@@H]1N(C(=O)CNC(=O)c1ccc3c(c1)-c1ccccc1C3(F)F)[C@H](C(=O)N[C@H](C)c1cc(C(=N)N)cs1)C2 [Compound 72, (1S,3S,5R)—N—((R)-1-(4-carbamimidoylthiophen-2-yl)ethyl)-2-((9,9-difluoro-9H-fluorene-3-carbonyl)glycyl)-5-(methoxymethyl)-2-azabicyclo[3.1.0]hexane-3-carboxamide]",< 100
14,"N=C(N)c1csc(CNC(=O)[C@@H]2CC3(CN2C(=O)CNC(=O)c2ccc(-c4ccc(F)cc4)cc2)OCCO3)c1 [Compound 73, (S)—N-((4-carbamimidoylthiophen-2-yl)methyl)-7-((4′-fluoro-[1,1′-biphenyl]-4-carbonyl)glycyl)-1,4-dioxa-7-azaspiro[4.4]nonane-8-carboxamide]",< 100
15,"N=C(N)c1csc(CNC(=O)[C@@H]2CC3(CN2C(=O)CNC(=O)c2ccc(Oc4ccccc4)cc2F)OCCO3)c1 [Compound 74, (S)—N-((4-carbamimidoylthiophen-2-yl)methyl)-7-((2-fluoro-4-phenoxybenzoyl)glycyl)-1,4-dioxa-7-azaspiro[4.4]nonane-8-carboxamide]",< 100
16,"O=C(NCC(=O)N1CC2(C[C@H]1C(=O)NCc1cc(Br)cs1)OCCO2)c1ccc(Oc2ccc(F)cc2)cc1 [Compound 75, (S)—N-((4-bromothiophen-2-yl)methyl)-7-((4-(4-fluorophenoxy)benzoyl)glycyl)-1,4-dioxa-7-azaspiro[4.4]nonane-8-carboxamide]",> 1000
17,"O=C(NCC(=O)N1CC2(C[C@H]1C(=O)NCc1cc(-c3cc(C(F)(F)F)[nH]n3)cs1)OCCO2)c1ccc(Oc2ccc(F)cc2)cc1 [Compound 76, (S)-7-((4-(4-fluorophenoxy)benzoyl)glycyl)-N-((4-(5-(trifluoromethyl)-1H-pyrazol-3-yl)thiophen-2-yl)methyl)-1,4-dioxa-7-azaspiro[4.4]nonane-8-carboxamide]",> 1000

# Other lines, results leading:
row,IC50 [nM],SMILES
1,< 100,"N=C(N)c1csc(CNC(=O)[C@@H]2CC3(CN2C(=O)CNC(=O)c2ccc(-c4ccccc4)cc2)OCCO3)c1 [Compound 77, (S)-7-(([1,1′-biphenyl]-4-carbonyl)glycyl)-N-((4-carbamimidoylthiophen-2-yl)methyl)-1,4-dioxa-7-azaspiro[4.4]nonane-8-carboxamide]"
2,< 100,"C[C@@H](NC(=O)[C@@H]1CC2(CN1C(=O)CNC(=O)c1ccc3cc4ccccc4cc3c1)OCCO2)c1cc(C(=N)N)cs1 [Compound 78, (S)-7-((anthracene-2-carbonyl)glycyl)-N—((R)-1-(4-carbamimidoylthiophen-2-yl)ethyl)-1,4-dioxa-7-azaspiro[4.4]nonane-8-carboxamide]"
3,< 100,"C[C@@H](NC(=O)[C@@H]1C[C@@H](c2ccccc2)CN1C(=O)CNC(=O)c1ccc2c(c1)-c1ccccc1C2(F)F)c1cc(C(=N)N)cs1 [Compound 81, (2S,4S)—N—((R)-1-(4-carbamimidoylthiophen-2-yl)ethyl)-1-((9,9-difluoro-9H-fluorene-3-carbonyl)glycyl)-4-phenylpyrrolidine-2-carboxamide]"
4,< 100,"C[C@@H](NC(=O)[C@@H]1CC2(CN1C(=O)CNC(=O)c1ccc(C(F)(F)c3ccccc3)cc1)OCCO2)c1cc(C(=N)N)cs1 [Compound 82, (S)—N—((R)-1-(4-carbamimidoylthiophen-2-yl)ethyl)-7-((4-(difluoro(phenyl)methyl)benzoyl)glycyl)-1,4-dioxa-7-azaspiro[4.4]nonane-8-carboxamide]"
5,< 100,"N=C(N)c1csc(CNC(=O)[C@@H]2CC3(CN2C(=O)CNC(=O)c2ccc(-c4ccccc4)cc2F)OCCO3)c1 [Compound 83, (S)—N-((4-carbamimidoylthiophen-2-yl)methyl)-7-((3-fluoro-[1,1′-biphenyl]-4-carbonyl)glycyl)-1,4-dioxa-7-azaspiro[4.4]nonane-8-carboxamide]"
6,< 100,"C[C@H](O)[C@H](O)[C@@H](O)[C@@H](O)CNCC(=O)NCCOC[C@@]12C[C@@H]1N(C(=O)CNC(=O)c1ccc(Oc3ccc(F)cc3)cc1)[C@H](C(=O)N[C@H](C)c1cc(C(=N)N)cs1)C2 [Compound 84, (1S,3S,5R)—N—((R)-1-(4-carbamimidoylthiophen-2-yl)ethyl)-2-((4-(4-fluorophenoxy)benzoyl)glycyl)-5-((2-(2-(((2S,3S,4S,5S)-2,3,4,5-tetrahydroxyhexyl)amino)acetamido)ethoxy)methyl)-2-azabicyclo[3.1.0]hexane-3-carboxamide]"
7,< 100,"C[C@@H](NC(=O)[C@@H]1CC2(CN1C(=O)CNC(=O)c1ccc(Oc3ccc(F)cc3)cc1)OCCO2)c1ccc(C(=N)N)s1 [Compound 85, (S)—N—((R)-1-(5-carbamimidoylthiophen-2-yl)ethyl)-7-((4-(4-fluorophenoxy)benzoyl)glycyl)-1,4-dioxa-7-azaspiro[4.4]nonane-8-carboxamide]"
8,< 100,"C[C@@H](NC(=O)[C@@H]1C[C@@H](OC(F)F)CN1C(=O)CNC(=O)c1ccc(Oc2ccc(F)cc2)cc1)c1cc(-c2ncc[nH]2)cs1 [Compound 86, (2S,4R)—N—((R)-1-(4-(1H-imidazol-2-yl)thiophen-2-yl)ethyl)-4-(difluoromethoxy)-1-((4-(4-fluorophenoxy)benzoyl)glycyl)pyrrolidine-2-carboxamide]"
